Assay results: ChEMBL document CHEMBL3885881, “DrugMatrix”

Species: Rattus norvegicus
Experiment: DrugMatrix - Regimen: Daily Repeat
Format: toxicity, organism-based, Sprague-Dawley
Parameters: regimen Daily Repeat, gender Male, age 6-8 weeks
Conditions: in vivo, po, route oral GAVAGE, vehicle .5 % CMC; for ABSOLUTE BASOPHIL / ABSOLUTE EOSINOPHIL / ABSOLUTE LYMPHOCYTE / ABSOLUTE MONOCYTE / ABSOLUTE SEGMENTED NEUTROPHIL / BASOPHIL / EOSINOPHIL / ERYTHROCYTE COUNT / HEMATOCRIT / HEMOGLOBIN / LEUKOCYTE COUNT / LYMPHOCYTE / MEAN CORPUSCULAR HEMOGLOBIN / MEAN CORPUSCULAR HEMOGLOBIN CONCENTRATION / MEAN CORPUSCULAR VOLUME / MONOCYTE / NEUTROPHIL / NUCLEATED RED BLOOD CELLS / PLATELET COUNT: tissue Blood; for ALANINE AMINOTRANSFERASE / ALBUMIN / ALKALINE PHOSPHATASE / ASPARTATE AMINOTRANSFERASE / BLOOD UREA NITROGEN / CARBON DIOXIDE / CHLORIDE / CHOLESTEROL / CREATINE PHOSPHOKINASE / CREATININE / GLUCOSE / LACTATE DEHYDROGENASE / LIPASE / PHOSPHORUS / POTASSIUM / SODIUM / TOTAL BILIRUBIN / TOTAL PROTEIN / URIC ACID: tissue Plasma
[1] = 44 mg/kg, 120 h, dose level Low, time 5 day
[2] = 439 mg/kg, 72 h, dose level High, time 3 day
[3] = 439 mg/kg, 120 h, dose level High, time 5 day

Compound: Brc1ccccc1 [BROMOBENZENE]
- ABSOLUTE BASOPHIL [1]: 0 CELLS/uL
- ABSOLUTE EOSINOPHIL [1]: 0 CELLS/uL
- ABSOLUTE LYMPHOCYTE [1]: 9552.67 CELLS/uL
- ABSOLUTE MONOCYTE [1]: 143.67 CELLS/uL
- ABSOLUTE SEGMENTED NEUTROPHIL [1]: 903.67 CELLS/uL
- BASOPHIL [1]: 0%
- EOSINOPHIL [1]: 0%
- ERYTHROCYTE COUNT [1]: 5.33 x10E6/uL
- HEMATOCRIT [1]: 32.83%
- HEMOGLOBIN [1]: 12.7 G/DL
- LEUKOCYTE COUNT [1]: 10.6 x10E3/uL
- LYMPHOCYTE [1]: 90%
- MEAN CORPUSCULAR HEMOGLOBIN [1]: 23.83 pg
- MEAN CORPUSCULAR HEMOGLOBIN CONCENTRATION [1]: 38.7 G/DL
- MEAN CORPUSCULAR VOLUME [1]: 61.57 fL
- MONOCYTE [1]: 1.33%
- NEUTROPHIL [1]: 8.67%
- NUCLEATED RED BLOOD CELLS [1]: 0 /100WBC
- PLATELET COUNT [1]: 1057.33 x10E3/uL
- ALANINE AMINOTRANSFERASE [1]: 40.67 u/L
- ALBUMIN [1]: 4.3 G/DL
- ALKALINE PHOSPHATASE [1]: 334.67 u/L
- ASPARTATE AMINOTRANSFERASE [1]: 69.67 u/L
- BLOOD UREA NITROGEN [1]: 14.67 mg/dL
- CARBON DIOXIDE [1]: 26.33 mmol/L
- CHLORIDE [1]: 101.67 MEQ/L
- CHOLESTEROL [1]: 64.33 mg/dL
- CREATINE PHOSPHOKINASE [1]: 162.67 u/L
- CREATININE [1]: 0.24 mg/dL
- GLUCOSE [1]: 160 mg/dL
- LACTATE DEHYDROGENASE [1]: 86.67 u/L
- LIPASE [1]: 9.33 u/L
- PHOSPHORUS [1]: 11.83 mg/dL
- POTASSIUM [1]: 6.35 MEQ/L
- SODIUM [1]: 144.7 MEQ/L
- TOTAL BILIRUBIN [1]: 0.1 mg/dL
- TOTAL PROTEIN [1]: 6.2 G/DL
- URIC ACID [1]: 1.67 mg/dL
- ABSOLUTE BASOPHIL [2]: 0 CELLS/uL
- ABSOLUTE EOSINOPHIL [2]: 46.33 CELLS/uL
- ABSOLUTE LYMPHOCYTE [2]: 10833.67 CELLS/uL
- ABSOLUTE MONOCYTE [2]: 138 CELLS/uL
- ABSOLUTE SEGMENTED NEUTROPHIL [2]: 1815.33 CELLS/uL
- BASOPHIL [2]: 0%
- EOSINOPHIL [2]: 0.33%
- ERYTHROCYTE COUNT [2]: 4.81 x10E6/uL
- HEMATOCRIT [2]: 30.27%
- HEMOGLOBIN [2]: 11.9 G/DL
- LEUKOCYTE COUNT [2]: 12.83 x10E3/uL
- LYMPHOCYTE [2]: 85.33%
- MEAN CORPUSCULAR HEMOGLOBIN [2]: 24.7 pg
- MEAN CORPUSCULAR HEMOGLOBIN CONCENTRATION [2]: 39.3 G/DL
- MEAN CORPUSCULAR VOLUME [2]: 62.83 fL
- MONOCYTE [2]: 1%
- NEUTROPHIL [2]: 13.33%
- NUCLEATED RED BLOOD CELLS [2]: 0.33 /100WBC
- PLATELET COUNT [2]: 1082.33 x10E3/uL
- ALANINE AMINOTRANSFERASE [2]: 59 u/L
- ALBUMIN [2]: 4.17 G/DL
- ALKALINE PHOSPHATASE [2]: 378.33 u/L
- ASPARTATE AMINOTRANSFERASE [2]: 83.67 u/L
- BLOOD UREA NITROGEN [2]: 15 mg/dL
- CARBON DIOXIDE [2]: 29.33 mmol/L
- CHLORIDE [2]: 100.67 MEQ/L
- CHOLESTEROL [2]: 84.67 mg/dL
- CREATINE PHOSPHOKINASE [2]: 171 u/L
- CREATININE [2]: 0.22 mg/dL
- GLUCOSE [2]: 160 mg/dL
- LACTATE DEHYDROGENASE [2]: 172 u/L
- LIPASE [2]: 12 u/L
- PHOSPHORUS [2]: 12.47 mg/dL
- POTASSIUM [2]: 6.1 MEQ/L
- SODIUM [2]: 143.47 MEQ/L
- TOTAL BILIRUBIN [2]: 0.13 mg/dL
- TOTAL PROTEIN [2]: 5.97 G/DL
- URIC ACID [2]: 1.03 mg/dL
- ABSOLUTE BASOPHIL [3]: 0 CELLS/uL
- ABSOLUTE EOSINOPHIL [3]: 0 CELLS/uL
- ABSOLUTE LYMPHOCYTE [3]: 9268 CELLS/uL
- ABSOLUTE MONOCYTE [3]: 132.4 CELLS/uL
- ABSOLUTE SEGMENTED NEUTROPHIL [3]: 919.6 CELLS/uL
- BASOPHIL [3]: 0%
- EOSINOPHIL [3]: 0%
- ERYTHROCYTE COUNT [3]: 5.45 x10E6/uL
- HEMATOCRIT [3]: 32.3%
- HEMOGLOBIN [3]: 12.54 G/DL
- LEUKOCYTE COUNT [3]: 10.32 x10E3/uL
- LYMPHOCYTE [3]: 89.6%
- MEAN CORPUSCULAR HEMOGLOBIN [3]: 23 pg
- MEAN CORPUSCULAR HEMOGLOBIN CONCENTRATION [3]: 38.82 G/DL
- MEAN CORPUSCULAR VOLUME [3]: 59.26 fL
- MONOCYTE [3]: 1.2%
- NEUTROPHIL [3]: 9.2%
- NUCLEATED RED BLOOD CELLS [3]: 0.2 /100WBC
- PLATELET COUNT [3]: 1078.8 x10E3/uL
- ALANINE AMINOTRANSFERASE [3]: 43.2 u/L
- ALBUMIN [3]: 4.4 G/DL
- ALKALINE PHOSPHATASE [3]: 375.2 u/L
- ASPARTATE AMINOTRANSFERASE [3]: 72.8 u/L
- BLOOD UREA NITROGEN [3]: 16.2 mg/dL
- CARBON DIOXIDE [3]: 25.2 mmol/L
- CHLORIDE [3]: 102.4 MEQ/L
- CHOLESTEROL [3]: 77.2 mg/dL
- CREATINE PHOSPHOKINASE [3]: 262.4 u/L
- CREATININE [3]: 0.2 mg/dL
- GLUCOSE [3]: 153.6 mg/dL
- LACTATE DEHYDROGENASE [3]: 118.8 u/L
- LIPASE [3]: 9.6 u/L
- PHOSPHORUS [3]: 12.5 mg/dL
- POTASSIUM [3]: 6.84 MEQ/L
- SODIUM [3]: 144.22 MEQ/L
- TOTAL BILIRUBIN [3]: 0.18 mg/dL
- TOTAL PROTEIN [3]: 6.18 G/DL
- URIC ACID [3]: 1.92 mg/dL
